From patent EP0195316A1, “Quinolonecarboxylic acid derivatives” (KYORIN PHARMACEUTICAL CO., LTD., priority 1985, dated 1986)
In brackets after ≈: the same amount, converted by molar mass. Where two headings read alike, the source gives them in different places.

Columns and labels:
Format in all cases: cell-based
[1] = test system: Propionibacterium acens 11828; experiment: MIC, in vitro antibacterial activity (standard strains); conditions: Propionibacterium acens 11828, 10^6 cells/ml, Gram +
E. cloacae IID 977 = test system: E. cloacae IID 977
N. meningitidis = experiment: MIC, in vitro antibacterial activity (clinical isolates); conditions: Neisseria meningitidis, No. of strains 3
E. cloacae = experiment: as above; conditions: Enterobacter cloacae
S. marcescens GN 7577 = test system: S. marcescens GN 7577
S. pneumoniae IID 552 = experiment: MIC, in vitro antibacterial activity (standard strains); conditions: Streptococcus pneumoniae, IID552; S. pneumoniae IID 552, 10^6 cells/ml, Gram +; read-out: MIC
F. varium KYA 8501 = experiment: as above; conditions: Fusobacterium varium, KYA8501; F. varium KYA 8501, 10^6 cells/ml, Gram -; read-out: MIC
P. morganii IID 602 = experiment: as above; conditions: Morganella morganii, IID602; P. morganii IID 602, 10^6 cells/ml, Gram -
C. freundii = experiment: MIC, in vitro antibacterial activity (clinical isolates); conditions: Citrobacter freundii, No. of strains 9
Shigella sonnei IID 969 = experiment: MIC, in vitro antibacterial activity (standard strains); conditions: IID969; Shigella sonnei IID 969, 10^6 cells/ml, Gram -
Method: (§1) Minimal inhibitory concentrations (MICs) were determined in accordance with the method recommended by Japan Society of Chemotherapy.

E. faecalis IID 682 = experiment: as above; conditions: Enterococcus faecalis, IID682; E. faecalis IID 682, 10^6 cells/ml, Gram +
H. influenzae = experiment: MIC, in vitro antibacterial activity (clinical isolates); conditions: Haemophilus influenzae, No. of strains 26
[2] = test system: Acinetobacter anitratus IID 876; experiment: MIC, in vitro antibacterial activity (standard strains); conditions: Acinetobacter calcoaceticus, IID876; Acinetobacter anitratus IID 876, 10^6 cells/ml, Gram -
B. fragilis 8503 = experiment: as above; conditions: Bacteroides fragilis; B. fragilis 8503, 10^6 cells/ml, Gram -
[3] = test system: Peptococcus magnus KY 017; experiment: as above; conditions: Finegoldia magna, KY017; Peptococcus magnus KY 017, 10^6 cells/ml, Gram +
[4] = test system: Enterobacter cloacae IID 977; experiment: as above; conditions: IID977; Enterobacter cloacae IID 977, 10^6 cells/ml, Gram -
E. coli ATCC 10536 = experiment: as above; conditions: Escherichia coli, ATCC10536
B. fragilis 0558 = experiment: as above; conditions: Bacteroides fragilis; B. fragilis 0558, 10^6 cells/ml, Gram -
Alcaligenes sp. = experiment: MIC, in vitro antibacterial activity (clinical isolates); conditions: No. of strains 9
[5] = test system: Fusobacterium necrophorum S-45; experiment: MIC, in vitro antibacterial activity (standard strains); conditions: S45; Fusobacterium necrophorum S-45, 10^6 cells/ml, Gram -
S. epidermidis = experiment: MIC, in vitro antibacterial activity (clinical isolates); conditions: Staphylococcus epidermidis, No. of strains 10
[6] = test system: Staphylococcus aureus 209 P; experiment: MIC, in vitro antibacterial activity (standard strains); conditions: 10^6 cells/ml, Gram +
P. vulgaris = experiment: MIC, in vitro antibacterial activity (clinical isolates); conditions: Proteus vulgaris, No. of strains 6
[7] = test system: Salmonella enteritidis IID 604; experiment: MIC, in vitro antibacterial activity (standard strains); conditions: Salmonella enterica
S. marcescens IID 618 = test system: S. marcescens IID 618
MR-S. aureus = experiment: MIC, in vitro antibacterial activity (clinical isolates); conditions: Staphylococcus aureus, No. of strains 46
S. aureus = experiment: as above; conditions: Staphylococcus aureus, No. of strains 21
Method: as §1

E. coli = experiment: as above; conditions: Escherichia coli, No. of strains 25
Method: as §1

[8] = test system: Klebsiella pneumoniae KY(GN)6445; experiment: MIC, in vitro antibacterial activity (standard strains)
[9] = test system: Serratia marcescens IID 618; experiment: as above; conditions: IID618; Serratia marcescens IID 618, 10^6 cells/ml, Gram -
[10] = test system: B. thetaiotaomicron (0661); experiment: as above; conditions: Bacteroides thetaiotaomicron; B. thetaiotaomicron (0661), 10^6 cells/ml, Gram -; read-out: MIC
[11] = test system: Streptococcus pyogenes (S-8); experiment: as above; conditions: Streptococcus pyogenes (S-8), 10^6 cells/ml, Gram +; read-out: MIC
[12] = test system: S. aureus IID 670 (Terajima); experiment: as above; conditions: Staphylococcus aureus, IID670, 10^6 cells/ml, Gram +
M. morganii = experiment: MIC, in vitro antibacterial activity (clinical isolates); conditions: Morganella morganii, No. of strains 8
[13] = test system: Escherichia coli NIHJ JC-2; experiment: MIC, in vitro antibacterial activity (standard strains); conditions: NIHJJC2; Escherichia coli NIHJ JC-2, 10^6 cells/ml, Gram -; read-out: MIC
S. pyogenes = experiment: MIC, in vitro antibacterial activity (clinical isolates); conditions: Streptococcus pyogenes; clinical isolates S. pyogenes, No. of strains 6; read-out: MIC
[14] = E. cloacae IID 977, Conc. of Drugs 2MIC
[15] = E. cloacae IID 977, Conc. of Drugs 4MIC
[16] = S. marcescens GN 7577, Conc. of Drugs 4MIC
[17] = S. marcescens GN 7577, Conc. of Drugs 8MIC
[18] = S. marcescens IID 618, Conc. of Drugs 2MIC
[19] = S. marcescens IID 618, Conc. of Drugs 4MIC

SMILES | MIC [1] | Frequency of spontaneous resistant mutants (E. cloacae IID 977; [14]) | Frequency of spontaneous resistant mutants (E. cloacae IID 977; [15]) | MIC (N. meningitidis) | MIC (E. cloacae) | Frequency of spontaneous resistant mutants (S. marcescens GN 7577; [16]) | Frequency of spontaneous resistant mutants (S. marcescens GN 7577; [17]) | MIC (S. pneumoniae IID 552) | MIC (F. varium KYA 8501) | MIC (P. morganii IID 602) | MIC (C. freundii) | MIC (Shigella sonnei IID 969) | MIC (E. faecalis IID 682) | MIC (H. influenzae) | MIC [2] | MIC (B. fragilis 8503) | MIC [3] | MIC [4] | MIC (E. coli ATCC 10536) | MIC (B. fragilis 0558) | other results
NC1CCN(c2c(F)cc3c(=O)c(C(=O)O)cn(C4CC4)c3c2Cl)C1 (stereo not drawn) [Example 25, 7-(3-Amino-l-pyrrolidinyl)-8-chloro-l-cyclopropyl-6-fluoro-1,4-dihydro-4-oxo-3-quinolinecarboxylic acid] | 1.56 µg/mL | 6.7 × 10^-10 | <6.7 × 10^-10 | 0.006 µg/mL (≈ 0.0164 µM) | 0.013 µg/mL (≈ 0.0355 µM) | <5.3 × 10^-10 | <5.3 × 10^-10 | 0.1 µg/mL (≈ 0.273 µM) | 0.78 µg/mL (≈ 2.13 µM) | 0.05 µg/mL (≈ 0.137 µM) | 0.1 µg/mL (≈ 0.273 µM) | 0.0125 µg/mL (≈ 0.0342 µM) | 0.1 µg/mL | 0.013 µg/mL (≈ 0.0355 µM) | 0.05 µg/mL (≈ 0.137 µM) | 0.39 µg/mL (≈ 1.07 µM) | 0.05 µg/mL | 0.05 µg/mL (≈ 0.137 µM) | 0.0125 µg/mL (≈ 0.0342 µM) | 0.1 µg/mL (≈ 0.273 µM) | Frequency of spontaneous resistant mutants (S. marcescens GN 7577; S. marcescens GN 7577, Conc. of Drugs 2MIC): 2.3 × 10^-7; MIC (Alcaligenes sp.): 0.78 µg/mL (≈ 2.13 µM); MIC [5]: 0.2 µg/mL (≈ 0.547 µM); MIC (S. epidermidis): 0.05 µg/mL (≈ 0.137 µM); MIC [6]: 0.05 µg/mL; MIC (P. vulgaris): 0.05 µg/mL (≈ 0.137 µM); MIC [7]: 0.0125 µg/mL (≈ 0.0342 µM); Frequency of spontaneous resistant mutants (S. marcescens IID 618; [18]): 1.5 × 10^-8; Frequency of spontaneous resistant mutants (S. marcescens IID 618; [19]): <1.0 × 10^-9; MIC (MR-S. aureus): 0.1 µg/mL (≈ 0.273 µM); MIC (S. aureus): 0.05 µg/mL (≈ 0.137 µM); MIC (E. coli): 0.013 µg/mL (≈ 0.0355 µM); MIC ([8]; Klebsiella pneumoniae): 0.0125 µg/mL (≈ 0.0342 µM); MIC [9]: 0.05 µg/mL (≈ 0.137 µM); MIC [10]: 0.2 µg/mL (≈ 0.547 µM); MIC [11]: 0.05 µg/mL (≈ 0.137 µM); MIC [12]: 0.05 µg/mL; MIC (M. morganii): 0.025 µg/mL (≈ 0.0683 µM); MIC [13]: ≤ 0.006 µg/mL; MIC (S. pyogenes): 0.1 µg/mL (≈ 0.273 µM)
CC1CN(c2c(F)cc3c(=O)c(C(=O)O)cn(C4CC4)c3c2Cl)CCN1 (stereo not shown) [Ref.2, 8-Chloro-1-cyclopropyl-6-fluoro-1,4-dihydro-7-(3-methyl-1-piperazinyl)-4-oxo-3-quinolinecarboxylic acid] | 3.13 µg/mL | 3.1 × 10^-7 | <6.7 × 10^-10 | 0.006 µg/mL (≈ 0.0158 µM) | 0.05 µg/mL (≈ 0.132 µM) | 9.9 × 10^-7 | 2.1 × 10^-9 | 0.39 µg/mL (≈ 1.03 µM) | 3.13 µg/mL (≈ 8.24 µM) | 0.05 µg/mL (≈ 0.132 µM) | 0.2 µg/mL (≈ 0.527 µM) | 0.0125 µg/mL (≈ 0.0329 µM) | 0.39 µg/mL | 0.025 µg/mL (≈ 0.0658 µM) | 0.05 µg/mL (≈ 0.132 µM) | 0.78 µg/mL (≈ 2.05 µM) | 0.2 µg/mL | 0.05 µg/mL (≈ 0.132 µM) | 0.0125 µg/mL (≈ 0.0329 µM) | 0.39 µg/mL (≈ 1.03 µM) | MIC (Alcaligenes sp.): 6.25 µg/mL (≈ 16.5 µM); MIC [5]: 0.39 µg/mL (≈ 1.03 µM); MIC (S. epidermidis): 0.1 µg/mL (≈ 0.263 µM); MIC [6]: 0.1 µg/mL; MIC (P. vulgaris): 0.05 µg/mL (≈ 0.132 µM); MIC ([7]; Salmonella enteritidis IID 604, 10^6 cells/ml, Gram -, read-out: MIC): 0.05 µg/mL (≈ 0.132 µM); Frequency of spontaneous resistant mutants (S. marcescens IID 618; [18]): 1.0 × 10^-7; Frequency of spontaneous resistant mutants (S. marcescens IID 618; [19]): <1.0 × 10^-9; MIC (MR-S. aureus): 0.39 µg/mL (≈ 1.03 µM); MIC (S. aureus): 0.1 µg/mL (≈ 0.263 µM); MIC (E. coli): 0.025 µg/mL (≈ 0.0658 µM); MIC ([8]; Klebsiella pneumoniae KY(GN)6445, 10^6 cells/ml, Gram -, read-out: MIC): 0.025 µg/mL (≈ 0.0658 µM); MIC [9]: 0.05 µg/mL (≈ 0.132 µM); MIC [10]: 0.78 µg/mL (≈ 2.05 µM); MIC [11]: 0.39 µg/mL (≈ 1.03 µM); MIC [12]: 0.1 µg/mL; MIC (M. morganii): 0.1 µg/mL (≈ 0.263 µM); MIC [13]: ≤ 0.006 µg/mL; MIC (S. pyogenes): 0.39 µg/mL (≈ 1.03 µM)
